Experimental data taken from patent US20070269531A1, “Non-Steroid Anti-Inflammatory Agents with Vitamins, Minerals, and Dietary Supplements for the Prevention and Treatment of Primary, Secondary and Tertiary Cancer” (priority 2004, published 2007).
“And” between values parts separate entries of the source, which are not always exact repeats. Equal entries are not always repeated. Where two headings read alike, the source gives them in different places.

Experiments:
[1] = meta-analysis (Lewis et al., 2002); cited from earlier work
[2] = Gross necroscopic examination for GI mucosal injury; type: in vivo, mouse; conditions: mice consuming chow containing ibuprofen
HT-29 cells PGE2 levels = assay: Prostaglandin E2 ELISA, HT-29 conditioned medium; type: cell-based, human; conditions: 24 h
Description: (§1) The transplantable mouse CRC cell line MC-26 (Singh et al., 1986) was obtained from Dr. K. K. Tanabe (Massachusetts General Hospital, Boston, Mass.), and the human colorectal adenocarcinoma cell line HT 29 was obtained from ATCC. MC-26 cells and HT-29 were maintained in Dulbecco's modified Eagle's medium (DMEM; Life Technologies, Inc, Gaithersburg, Md.) and McCoy's 5A medium, respectively, supplemented with 10% fetal calf sertum plus antibiotics at 37° C. in a humidified atmosphere of 95% air/5% C02. Human umbilical vein endothelial cells (HUVECs) was purchased from Canibrex (Walkersville, Md.) and maintained in EGM-2 medium (Cambrex).
(§2) Prostaglandin E2 (PGE2), the major metabolite of arachidonic acid metabolism, was measured by ELISA (Cayman Chemical, Ami Arbor, Mich.), using conditional cell culture medium, according to the protocol provided by manufacturer. Measurements were made in triplicate in separate experiments.

[3] = system: CD31 positive microvessels; assay: CD31 microvessel immunohistochemistry of tumor sections; type: in vivo, mouse; conditions: P=0.059
Description: To assess anigiogenesis in tumor tissues, frozen sections were made and microvessels were stained with anti-mouse CD31 mnonocolonal antibodies (BD transduction laboratories). The specimens were incubated with secondary antibody for 1 h at 37° C. and stained by the avidin-biotin peroxide complex (ABC) method using an ABC staining kit (Santa Cruz Biotech, Santa Cruz, Calif.). They were visualized by 3,3′-diammobenzidme (DAB) and counlterstained with hematoxyhn.

MC-26 cells = assay: In vitro cell proliferation assay (MTT), MC-26; type: cell-based, mouse; conditions: 72 h
Description: as §1
In Vitro cell proliferation was assessed using a CellTiter 96®AQ One Solution Cell Proliferation Assay kit (Promega). 1-3×10^4 cells/ml were plated in 96-well microtiter plates and incubated overnight. […]

HUVECs = assay: In vitro angiogenesis (tube formation) assay; type: cell-based, human; conditions: 1000 μM
Description: An in vitro anigiogenesis assay was performed according to the protocol provided by manufacturer (Chemicon, Temecula, Calif.) and described previously ([…] et al., 2004; […] et al., 2004). […] Microscopic digital images were taken, and cumulative tube length was measured using SpotTM3.5.6.

HT-29 cells = assay: In vitro cell proliferation assay (MTT), HT-29; type: cell-based, human; conditions: HT-29, 1000 μM, 72 h
Description: as §1
(§3) In Vitro cell proliferation was assessed using a CellTiter 96®AQ One Solution Cell Proliferation Assay kit (Promega). 1-3×10^4 cells/ml were plated in 96-well microtiter plates and incubated overnight. […] 20 μl of MTS tetrazolium solution were added to each well, and the cells were further incubated at 37° C. for 1 h, at which time the reactions were stopped by the addition of 10% SDS. The absorbance at wavelength 490 nm was measured using an EX800 microplate reader (Bio-Tek, Highland, Wis.).

MC-26 cell PGE2 levels = assay: Prostaglandin E2 ELISA, MC-26 conditioned medium; type: cell-based, mouse; conditions: MC-26 cells, 1000 μM, 24 h
Description: as §1, §2

HT-29 tumor = assay: HT-29 human xenograft CRC model in nude mice; conditions: throughout the period of investigation
[4] = cited from earlier work
HUVEC = HUVEC cell proliferation (MTT); type: cell-based, human; conditions: 1000 μM, 24 h
Description: as §1, §3

MC-26 liver metastasis = assay: Experimental liver metastasis model (subsplenic MC-26 injection); type: in vivo, mouse; conditions: 1360 mg/kg chow for 14 days
Description: The incidence and extent of liver metastasis were then recorded.

[5] = Plasma ibuprofen concentration in mice fed ibuprofen chow; type: in vivo, mouse; conditions: mice fed chow containing 1360 mg/kg; blood on days 7 and 14
Description: Ibuprofen was purchased from Sigma, and pellet-formed chow containing ibuprofen was prepared by Harlan Teklad (Madison, Wis.). Blood was drawn on day 7 and 14 by tail bleeding, and serum was separated from the whole blood and frozen at −70° C. until analysis.
The plasma samples were analyzed by a quantified liquid chromatography-tandem mass spectrometry (LC/MS/MS) method. Sample preparation was performed using protein precipitation.
A […] aliquot of internal standard working solution (3000 ng/mL of Phenacetin I.S. in acetonitrile) was added to 25 μL of plasma. Each sample was then vortexed and centrifuged for 15 min at a speed of 13,000 rpm at 4° C.
After centrifugation, 150 μL of the supernatant was transferred into an HPLC vial, and aliquots of 5 μL were injected using a Perkin Elmer 200 Series autosampler (Perkin Elmer: Norwalk Conn.). The loading and analytical columns were a Zorbax Extend C18 (4.6×12.5 mm, 5 μdp; Agilent Technologies: Palo Alto, Calif.) and a Waters Xterra C 18 (3.9×20 mm, 3.5 μdp; Waters Corporation: Milfaird, Mass.), respectively. […] The column effluent was analyzed by selected reaction monitoring using a triple quadruple mass spectrometer (Micromass Quattro Ultima; Manchester, UK) equipped with an electrospray ion source operating in negative ion mode.

MC-26 tumor [6] = assay: Subcutaneous MC-26 tumor model, single agent
MC-26 tumor [7] = conditions: for overall survival rate: day 50
Description: Starting on day 7 after tumor cell inoculation, mice were randomly divided into eight groups as follow:
Group 1: control; control chow; 0.9% NaCl injected intraperitoneally (IP) on days 9, 11, 15, 18, 23, and 28; and 5% IP glucose on days 8, 12, 15, 19, 22, and 25.
Group 4: irinotecan alone; control chow; irinotecan 30 mg/kg on days 8, 12, 15, 19, 22, and 25; and 0.9% NaCl on days 9, 11, 15, 18, 23, and 28.
The date and number of animal in each group were recorded for survival analysis.

## O=C(O)Cc1ccccc1Nc1c(Cl)cccc1Cl [diclofenac]
[1]
  odds ratio, serious upper GI bleeding: 4.9

## COc1ccc2cc([C@H](C)C(=O)O)ccc2c1 [naproxen]
[1]
  odds ratio, serious upper GI bleeding: 9.1

## CC(C)Cc1ccc(C(C)C(=O)O)cc1 (stereo not drawn) [ibuprofen]
[2]
  gastroduodenal / GI mucosal injury: no evidence of gastroduodenal mucosal injury
[2]; listed as Ibuprofen
  gastroduodenal / GI mucosal injury: No GI mucosal injury
HT-29 cells PGE2 levels
  PGE2 levels diminished compared to control: 81.1%
HT-29 cells PGE2 levels; control 95.6 pg/mL
  PGE2 level: 18 pg/mL
[3]
  reduction in number of microvessels: ~30%
MC-26 cells; 125 μM
  decrease in MC-26 cell proliferation: 1.3%
MC-26 cells; 250 μM
  decrease in MC-26 cell proliferation: 5.8%
MC-26 cells; 500 μM
  decrease in MC-26 cell proliferation: 11.3%
MC-26 cells; 1000 μM
  decrease in MC-26 cell proliferation: 39.8%
HUVECs; 6 h
  reduction in tube length: 40%
HUVECs; 6 h, control 155.4±21.3
  tube length: 94.0±24.9 μm
HUVECs; 24 h
  reduction in tube length: 88%
HUVECs; 24 h, control 76.2±13.5
  tube length: 9.40±6.95 μm
HT-29 cells
  MTT levels diminished compared to control: 26.7%
MC-26 cell PGE2 levels
  PGE2 levels diminished compared to control: 70.1%
MC-26 cell PGE2 levels; control 268.5
  PGE2 level: 80.0 pg/mL
HT-29 tumor
  body weight vs control: no significant difference in body weight
[4]; 300 mg capsule, fasting humans (Halsas et al., 1999)
  plasma ibuprofen peak concentration: approximately 27,000 ng/ml
[4]; healthy humans, long-term high-dose 14 mg/kg
  peak plasma concentration (Cmax): 65,000 ng/ml
[4]; healthy humans, low dose 2.6 mg/kg
  Cmax: 15,800 ng/ml
[4]; healthy humans, moderate dose 7 mg/kg
  Cmax: 34,000 ng/ml
[4]; single dose of 300 mg, humans (Halsas et al., 1999)
  peak plasma ibuprofen concentration: ≥ 27,000 ng/mil
HUVEC
  MTT levels diminished compared to control: approximately 80%
MC-26 liver metastasis
  liver metastases vs control: more prevalent and larger in the control group
MC-26 liver metastasis; listed as IB
  liver metastases vs control: Fewer liver metastases
[5]
  plasma ibuprofen concentration: ~18,760±7,270 ng/ml and ~20,978±5,966 ng/ml
MC-26 tumor [6]; chow containing 1360 ppm, summary over mouse and human CRC models
  tumor growth inhibited: 40-82%
MC-26 tumor [6]; day 21, control 20.3±2.6
  average body weight: 24.1 ± 1.73 g

## CN1C(C(=O)Nc2ccccn2)=C(O)c2ccccc2S1(=O)=O [piroxicam]
[1]
  odds ratio, serious upper GI bleeding: 13.1

## CCc1c2c(nc3ccc(OC(=O)N4CCC(N5CCCCC5)CC4)cc13)-c1cc3c(c(=O)n1C2)COC(=O)[C@]3(O)CC [CPT-11, Irinotecan]
MC-26 tumor [7]; day 28, average over the named groups, control 19.65±1.24
  average body weight: 23.1 ± 1.72 g
MC-26 tumor [7]; 5-FU given with leucovorin
  overall survival rate: 80%
MC-26 tumor [7]; mouse, in vivo
  survival compared to control mice and other regimens: significantly prolonged

## O=c1[nH]cc(F)c(=O)[nH]1 [5-FU, Fluorouracil]
MC-26 tumor [7]; 5-FU given with leucovorin
  overall survival rate: 30%
MC-26 tumor [7]; treatment day 7 to 28, 5-FU given with leucovorin, control 1491.3±862
  tumor volume: 499±234 mm^3
